Measurements published in patent US20240254119A1 (THIRD HARMONIC BIO, INC., priority 2022, published 2024).

Legend:
CSF-1R [1] = molecular target: T1, CSF-1R (Homo sapiens, UniProt P07333); assay: HTRF biochemical assay, CSF-1R; conditions: Table 4
T1 construct: purchased Invitrogen PV3249 (lot 662393N)
Procedure: (§1) Exemplary compounds were tested for ability to inhibit the phosphorylation of a peptide substrate by the tyrosine kinase wt KIT, PDGFRα, or CSF-1R. Assay procedures and results are described below.
(§2) Enzyme, substrate, and cofactors (ATP and Mn^2+) are combined in a well of a microtiter plate and incubated for 3 hours at 25° C. At the end of the incubation, the reaction is quenched by the addition of an EDTA-containing buffer.
(§3) The substrate used in the CSF-1R and PDGFRα assay is FAM-[…]-CONH2 (FAM is carboxyfluorescein). Peptide should be >95% purity. The substrate for the KIT assay is FAM-[…]-NH2.
(§4) • 1. To a well of a 384-wellplate add 5 μL of 2× enzyme buffer (or control). • 2. Add 100 nL of 100× compound. Enzyme and compound may be pre-incubated at this time if desired. • 3. Add 5 μL of 2× substrate buffer. • 4. Incubate plate at 25° C. for 3 hours. • 5. Add 10 uL of anti-phosphotyrosine antibody buffer. • 6. Read plate in BioTek Synergy Reader. Reaction Conditions for wtKIT Assay

PDGFRα [2] = molecular target: T2, PDGFRα (Homo sapiens, UniProt P16234); assay: HTRF biochemical assay, PDGFRα; conditions: Table 4, read-out: PDFGRα Biochemical IC50 avg
T2 construct: purchased Millipore 14-467 (lot 26321_ACTI)
T2 sequence (P16234 24-1089): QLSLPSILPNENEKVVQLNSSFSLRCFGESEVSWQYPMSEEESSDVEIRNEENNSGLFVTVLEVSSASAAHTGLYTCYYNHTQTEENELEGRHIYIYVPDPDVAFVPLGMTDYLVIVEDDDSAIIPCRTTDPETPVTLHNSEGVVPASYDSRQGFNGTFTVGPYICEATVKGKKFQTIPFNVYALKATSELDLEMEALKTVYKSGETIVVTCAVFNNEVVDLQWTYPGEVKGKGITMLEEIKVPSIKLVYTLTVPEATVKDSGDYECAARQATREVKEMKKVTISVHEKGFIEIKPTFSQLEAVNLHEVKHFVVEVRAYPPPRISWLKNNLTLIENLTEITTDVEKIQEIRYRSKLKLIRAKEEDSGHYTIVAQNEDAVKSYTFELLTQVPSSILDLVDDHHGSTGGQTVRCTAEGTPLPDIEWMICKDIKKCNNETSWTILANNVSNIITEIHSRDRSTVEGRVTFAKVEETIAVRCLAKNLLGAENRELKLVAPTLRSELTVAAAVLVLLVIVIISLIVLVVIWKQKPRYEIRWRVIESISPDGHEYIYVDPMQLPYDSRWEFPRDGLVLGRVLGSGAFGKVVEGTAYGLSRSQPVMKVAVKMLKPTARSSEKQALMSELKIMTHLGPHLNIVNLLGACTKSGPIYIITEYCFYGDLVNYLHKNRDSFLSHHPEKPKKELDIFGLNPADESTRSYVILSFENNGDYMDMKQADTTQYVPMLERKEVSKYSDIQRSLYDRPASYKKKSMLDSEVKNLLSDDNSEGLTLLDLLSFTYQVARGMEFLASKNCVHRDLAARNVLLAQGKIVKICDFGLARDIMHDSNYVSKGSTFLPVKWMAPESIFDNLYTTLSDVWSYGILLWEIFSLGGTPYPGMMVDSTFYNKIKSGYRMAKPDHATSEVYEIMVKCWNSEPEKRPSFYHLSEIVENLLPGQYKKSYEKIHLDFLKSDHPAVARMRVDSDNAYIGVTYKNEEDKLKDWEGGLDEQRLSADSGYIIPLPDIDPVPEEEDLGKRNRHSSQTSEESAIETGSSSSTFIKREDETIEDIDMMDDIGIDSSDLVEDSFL
Procedure: as §1, §2, §3, §4

wtKIT [3] = molecular target: T3, wtKIT (Homo sapiens, UniProt P10721); assay: HTRF biochemical assay, wtKIT (phosphorylation of a peptide substrate); conditions: Table 4
T3 construct: 1888289AM in the reaction mixtures
T3 sequence (P10721 26-976): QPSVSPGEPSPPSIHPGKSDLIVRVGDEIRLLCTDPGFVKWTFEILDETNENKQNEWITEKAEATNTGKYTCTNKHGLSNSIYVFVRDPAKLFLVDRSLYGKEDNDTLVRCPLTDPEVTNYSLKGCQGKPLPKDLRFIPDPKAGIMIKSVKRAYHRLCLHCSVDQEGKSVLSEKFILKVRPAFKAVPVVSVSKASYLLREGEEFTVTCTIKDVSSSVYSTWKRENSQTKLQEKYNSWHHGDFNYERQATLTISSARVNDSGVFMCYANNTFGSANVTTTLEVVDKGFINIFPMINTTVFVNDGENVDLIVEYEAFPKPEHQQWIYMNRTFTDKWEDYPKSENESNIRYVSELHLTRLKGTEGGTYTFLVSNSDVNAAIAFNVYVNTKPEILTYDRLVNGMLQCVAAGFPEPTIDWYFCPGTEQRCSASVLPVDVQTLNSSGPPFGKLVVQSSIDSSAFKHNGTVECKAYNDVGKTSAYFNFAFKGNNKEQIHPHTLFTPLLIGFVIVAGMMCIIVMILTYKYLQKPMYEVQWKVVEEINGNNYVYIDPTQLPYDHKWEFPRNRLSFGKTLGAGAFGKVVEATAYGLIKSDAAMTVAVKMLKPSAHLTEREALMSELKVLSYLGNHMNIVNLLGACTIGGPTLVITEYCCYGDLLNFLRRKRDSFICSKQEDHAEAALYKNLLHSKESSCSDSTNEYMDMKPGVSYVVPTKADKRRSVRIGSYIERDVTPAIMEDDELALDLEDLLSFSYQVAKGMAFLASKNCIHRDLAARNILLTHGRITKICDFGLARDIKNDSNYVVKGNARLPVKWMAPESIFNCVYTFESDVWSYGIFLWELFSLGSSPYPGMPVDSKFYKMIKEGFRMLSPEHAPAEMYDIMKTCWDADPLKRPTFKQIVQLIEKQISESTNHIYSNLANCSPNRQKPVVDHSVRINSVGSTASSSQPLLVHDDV
Procedure, shortened: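 wtKIT (5.0 nM) phosphorylating 1 µM FAM-labelled peptide with 400 µM ATP and 10 mM MnCl2 in 100 mM HEPES pH 7.5, 1% DMSO, 3 h at 25 °C. EDTA quench; phosphopeptide detected with anti-phosphotyrosine antibody by HTRF. Enzyme titrated for 10-20% substrate conversion.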

Kinetic solubility assay = format: physicochemical; conditions: kinetic solubility, 50 mM PB (pH 7.4), shaken 24 hours at RT
Procedure, shortened: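 Test compounds from 10 mM DMSO stock were diluted in 50 mM phosphate buffer, pH 7.4, and shaken for 24 h at RT. After PTFE filtration and centrifugation, filtrate concentration was quantified by UPLC-UV/HPLC-UV against a standard curve.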

[4] = system: KIT phosphorylation in M-07e cells; assay: Cell-based KIT phosphorylation in M-07e cells by pKIT ELISA; design: species or system human; conditions: SCF stimulation
Procedure: Exemplary compounds were tested for ability to inhibit KIT phosphorylation using M-07e cells as monitored by pKIT ELISA. M-07e cells are also represented as M-07E, M-07e, M07-e, M07e, Mo7e, MO7e, M07E and MO7E. Assay procedures and results are described below.
Part I—Procedures for Determining KIT Inhibition inM-07e Cells Using pKTT ELISA Reagents and consumables: • M-07e cells: Initially obtained from Accegen, cat #ABC-TC1313 • p-cKIT Capture ELISA antibody: anti-Human Phospho-CD117/c-kit, R&D cat #DYC3527-5 • Anti-pY-HIRP antibody: R&D cat #DYC3527-5 • 25× wash buffer: Quantikine ELISA Wash Buffer 1, R&D cat #WA126 • PBS: R&D cat #DY006 • 96 well ELISA plates: Clear Polystyrene Microplates, R&D Cat #DY990 • 96 well Tissue culture plates: Corning® 96 Well TC-Treated Microplates, cat #CLS3894 • RPMI medium: ATCC® RPMI-1640 Medium, Cat #30-2001 • FBS: Fetal Bovine Serum, certified, United States Gibco, Thermo-Fisher 16000044 • GM-CSF: Recombinant Human GM-CSF Protein, R&D cat #215-GM • SCF: Recombinant Human SCF Protein, R&D cat #255-SC
• 1. Prepare cells: • a. Culture M-07e cells in RPMI medium+20% serum+GM-CSF+penstrep • To make 50 mL of growth medium • i. 40 mL RPMI media • ii. 10 mL FBS • iii. 10 uL of GM-CSF (100 ug/mL stock) • iv. 0.5 mL pen strep (100×) • b. Harvest cells • c. Re-suspend cells in 100% RPMI media (without serum) to final concentration of 1 million cells/mL • d. Transfer 100 uL of cell solution to 11 columns of a 96 well flat bottom cell culture plate • e. Incubate cells over night at 37 C • 2. Prepare ELISA Plates: • a. Dilute capture antibody to concentration 4 ug/mL in PBS • b. Coat 96 well microplates with 100 uL of capture antibody • c. Seal plates and incubate at RT overnight • d. Wash plates with 300 uL of wash buffer • e. Repeat wash • f. Treat plates with 300 uL of blocking buffer at RT for 1 hour • 3. Addition of compounds: • a. Prepare compound dilutions in RPMI media • i. Top test concentration is 1 uM • ii. Serially dilute compounds 3× for a total of 8 concentrations • b. Add 10 uL of 10× compound dilutions to cells • i. No compounds added in column 11 (for controls) • c. Incubate cells with compounds for 2 hours at 37 C • d. Stimulate cells with SCF for 5 min at concentration of 100 ng/mL (final) • i. In column 11 stimulate top 4 wells. Leave bottom 4 wells unstimulated • e. Remove cell culture media with multichannel pipet • f. Add 110 uL of Lysis buffer to all wells • g. Incubate plates at RT for 30 min while shaking • 4. Transfer 100 uL of cell lysis to each prepared Elisa plate • 5. Add 100 uL of the standard pc-KIT dilutions to the standard wells in column 12 • a. Top concentration=2000 pg/mL • b. 2× dilutions • 6. Incubate ELISA plate with cell lysate for 2 hours at RT • 7. Wash Plate with wash buffer (wash 1) • 8. Repeat wash (wash 2) • 9. […] Add 100 uL of diluted anti-pY-HRP (1/1000 dilution in detection antibody dilution buffer) and incubate 2 hours at RT • 11. Wash plate with wash buffer (wash 1) • 12. Repeat wash (wash 2) • 13. Repeat wash (wash 3) • 14. Add 100 uL of substrate solution to each well • 15. Incubate plates 20 min • Note: Plate development is indicated by aqua color • 16. Add 50 uL of stop solution to each well • 17. Determine optical density on Bitek Synergy Neo2: • a. Make new experiment
Select absorbance 1 set to 450 nm

wtKIT [5] = molecular target: T3, wtKIT; assay: Caliper biochemical assay, wtKIT; conditions: Table 6, read-out: KIT Biochemical IC50 avg
Procedure, shortened: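 Enzyme (5.0 nM wtKIT), 1 μM FAM-labelled peptide, 400 μM ATP and 10 mM MnCl2 in HEPES pH 7.5 with 1% DMSO, incubated 3 h at 25° C. EDTA quench; substrate and phosphoproduct separated by microfluidic electrophoresis and quantified by fluorescence.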

[6] = molecular target: T4, BCRP (BCRP-MDCKII monolayer) (Homo sapiens, UniProt Q9UNQ0); assay: MDCKII-BCRP bidirectional transport assay; format: in vitro ADME
T4 construct: host or cells: MDCKII (canine kidney) cells
T4 sequence (Q9UNQ0 1-655): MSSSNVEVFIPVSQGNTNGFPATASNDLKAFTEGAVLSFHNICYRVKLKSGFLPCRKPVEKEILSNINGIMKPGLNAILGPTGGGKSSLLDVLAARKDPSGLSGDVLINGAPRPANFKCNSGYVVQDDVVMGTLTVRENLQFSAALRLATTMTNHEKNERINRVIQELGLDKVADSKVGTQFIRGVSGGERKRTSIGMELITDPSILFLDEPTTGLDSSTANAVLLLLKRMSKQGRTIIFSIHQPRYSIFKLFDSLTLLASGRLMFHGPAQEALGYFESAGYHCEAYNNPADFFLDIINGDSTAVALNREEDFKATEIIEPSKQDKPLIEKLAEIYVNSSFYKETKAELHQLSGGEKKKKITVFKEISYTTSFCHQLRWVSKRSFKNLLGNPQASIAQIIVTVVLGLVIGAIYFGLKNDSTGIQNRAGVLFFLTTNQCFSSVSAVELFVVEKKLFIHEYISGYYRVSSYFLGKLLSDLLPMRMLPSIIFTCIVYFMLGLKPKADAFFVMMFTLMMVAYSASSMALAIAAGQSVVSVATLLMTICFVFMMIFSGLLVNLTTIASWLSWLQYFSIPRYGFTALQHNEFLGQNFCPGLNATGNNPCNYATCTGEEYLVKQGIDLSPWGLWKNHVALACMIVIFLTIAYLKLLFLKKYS
Procedure, shortened: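 Bidirectional A→B and B→A transport across PreadyPort BCRP-MDCKII monolayers (days 12–15) was run in duplicate for 120 min at 37° C, 5% CO2 after a 15 min preincubation. Compound levels were measured by LC-MS/MS. Papp and recovery were calculated, with efflux ratio indicating transporter engagement.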

PDGFRα [7] = molecular target: T2, PDGFRα; assay: Caliper biochemical assay, PDGFRα; conditions: Table 6
Procedure, shortened: (§5)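 Kinase, FAM-labelled peptide substrate, ATP and Mn^2+ incubated with compound for 3 h at 25° C, then quenched with EDTA buffer. Substrate and phosphorylated product separated by microfluidic electrophoresis and quantified by fluorescence intensity; no-enzyme wells define 100% inhibition.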

CSF-1R [8] = molecular target: T1, CSF-1R; assay: Caliper biochemical assay, CSF-1R; conditions: Table 6
Procedure, shortened: as §5

T1 sequence (P07333 20-972): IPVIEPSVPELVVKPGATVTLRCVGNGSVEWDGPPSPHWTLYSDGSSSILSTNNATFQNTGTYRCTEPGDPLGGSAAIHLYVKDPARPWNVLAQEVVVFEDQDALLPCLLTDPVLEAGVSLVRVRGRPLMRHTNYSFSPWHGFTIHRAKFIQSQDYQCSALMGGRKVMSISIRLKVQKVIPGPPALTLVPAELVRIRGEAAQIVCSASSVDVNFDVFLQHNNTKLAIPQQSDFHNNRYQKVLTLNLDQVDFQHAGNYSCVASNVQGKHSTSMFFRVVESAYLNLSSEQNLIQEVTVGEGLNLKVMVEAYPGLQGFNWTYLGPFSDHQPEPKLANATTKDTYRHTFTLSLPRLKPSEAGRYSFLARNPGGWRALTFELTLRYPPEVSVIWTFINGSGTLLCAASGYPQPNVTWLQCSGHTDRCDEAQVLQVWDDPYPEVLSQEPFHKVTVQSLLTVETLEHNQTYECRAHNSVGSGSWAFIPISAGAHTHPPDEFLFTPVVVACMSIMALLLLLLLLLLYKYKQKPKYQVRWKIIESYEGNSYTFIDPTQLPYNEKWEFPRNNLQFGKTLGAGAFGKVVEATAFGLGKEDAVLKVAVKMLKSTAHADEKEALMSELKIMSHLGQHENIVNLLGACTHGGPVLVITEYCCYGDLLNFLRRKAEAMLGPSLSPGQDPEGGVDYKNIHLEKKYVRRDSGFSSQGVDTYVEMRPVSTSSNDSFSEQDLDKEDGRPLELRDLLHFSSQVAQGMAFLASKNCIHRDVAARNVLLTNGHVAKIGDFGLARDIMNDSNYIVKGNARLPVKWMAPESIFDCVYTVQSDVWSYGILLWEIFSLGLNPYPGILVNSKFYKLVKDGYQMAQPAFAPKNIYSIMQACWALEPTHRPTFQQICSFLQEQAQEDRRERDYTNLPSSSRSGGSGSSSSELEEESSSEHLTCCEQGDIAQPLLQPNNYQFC

| Structure (SMILES) | IC50 (CSF-1R [1]) [nM] | IC50 (PDGFRα [2]) [nM] | IC50 (wtKIT [3]) [nM] | Solubility (μM) (Kinetic solubility assay) | IC50 [4] [nM] | IC50 (wtKIT [5]) [nM] | MDCK-BCRP: Efflux Ratio [6] | MDCK-BCRP: Papp A-B ([6]; apical to basolateral) | IC50 (PDGFRα [7]) [nM] | IC50 (CSF-1R [8]) [nM] |
| --- | --- | --- | --- | --- | --- | --- | --- | --- | --- | --- |
| Cc1nc(-c2ccc(F)c(NC(=O)c3cnn4cc(-c5ccn(C)n5)ccc34)c2)no1 [Compound I-657] | 50 to 500 | 500 to 5000 | ≤ 50 |  |  |  |  |  |  |  |
| Cc1ccc(-c2noc(C3CC(F)(F)C3)n2)cc1NC(=O)c1cnc2cc(CO)ccn12 [Compound I-105] | ≤ 50 | 500 to 5000 | ≤ 50 | **** (a solubility less than or equal to 2 μM) | 50 to 500 |  |  |  |  |  |
| COCc1ccn2c(C(=O)Nc3cc(-c4noc(C)n4)ccc3F)cnc2c1 [Compound I-658] | 500 to 5000 | 5000 to 30000 | 500 to 5000 |  |  |  |  |  |  |  |
| Cc1ccc(-c2noc([C@H]3C[C@@H]3F)n2)cc1NC(=O)c1cnc2ccc(C3CNC3)cn12 [Compound I-106] | ≤ 50 | 50 to 500 | ≤ 50 | * (a solubility greater than 50 μM) | 50 to 500 |  |  |  |  |  |
| CCOc1ccc2ncc(C(=O)Nc3cc(-c4noc([C@H]5C[C@@H]5F)n4)ccc3C)n2c1 [Compound I-92] | ≤ 50 | 50 to 500 | ≤ 50 | **** (a solubility less than or equal to 2 μM) | ≤ 50 |  |  |  |  |  |
| Cc1ccc(-c2noc([C@@H]3CCCO3)n2)cc1NC(=O)c1cnc2ccccn12 [Compound I-396] | 50 to 500 | 500 to 5000 | ≤ 50 | **** (a solubility less than or equal to 2 μM) |  | ≤ 50 | 2.86 | 8.25 10^−6 cm/s | 500 to 5000 | 50 to 500 |
| COCc1ccn2c(C(=O)Nc3cc(-c4noc(C(F)(F)F)n4)ccc3C)cnc2c1 [Compound I-664] | 50 to 500 | 500 to 5000 | 50 to 500 |  |  |  |  |  |  |  |
| Cc1cc(C)c(-c2noc(C3CC3(F)F)n2)cc1NC(=O)c1cnc2ccccn12 (racemic) [Compound I-129] | ≤ 50 | 500 to 5000 | ≤ 50 | **** (a solubility less than or equal to 2 μM) |  | ≤ 50 |  |  | 500 to 5000 | ≤ 50 |
| Cc1ccc(-c2noc(C3CC(O)C3)n2)cc1NC(=O)c1cnn2cc(-c3ccn(C)n3)ccc12 (centres unmarked) [Compound I-652] | ≤ 50 | 50 to 500 | ≤ 50 |  |  |  |  |  |  |  |
| COCc1ccn2c(C(=O)Nc3cc(-c4noc(C)n4)ccc3C)cnc2c1 [Compound I-132] | 5000 to 30000 | 500 to 5000 | ≤ 50 | **** (a solubility less than or equal to 2 μM) |  | ≤ 50 |  |  | 500 to 5000 | 500 to 5000 |
| Cc1nc(-c2ccc(C)c(NC(=O)c3cnc4cc(OCCCN(C(=O)OC(C)(C)C)C5COC5)ccn34)c2)no1 [Compound I-660] | 50 to 500 | 500 to 5000 | ≤ 50 |  |  |  |  |  |  |  |
| Cc1ccc(-c2noc([C@H]3CC(F)(F)CN3)n2)cc1NC(=O)c1cnn2ccccc12 [Compound I-243] | 50 to 500 | 50 to 500 | ≤ 50 | * (a solubility greater than 50 μM) |  | ≤ 50 |  |  | 50 to 500 | 50 to 500 |
| COc1ccc2ncc(C(=O)Nc3cc(-c4noc(C[C@H](C)O)n4)ccc3C)n2c1 [Compound I-89] | 50 to 500 | 500 to 5000 | ≤ 50 |  | ≤ 50 |  |  |  |  |  |
| COCCS(=O)(=O)N1CC[C@H]1c1nc(-c2ccc(C)c(NC(=O)c3cnc4ccccn34)c2)no1 [Compound I-189] | 500 to 5000 | 500 to 5000 | ≤ 50 | ** (a solubility greater than 10 μM and less than or equal to 50 μM) |  | 50 to 500 |  |  | 500 to 5000 | 50 to 500 |
